Reference: article PMC10120551, “Novel Glu-based pyrazolo[3,4-d]pyrimidine analogues: design, synthesis and biological evaluation as DHFR and TS dual inhibitors” (Journal of Enzyme Inhibition and Medicinal Chemistry, 2023)
Where two headings read alike, the source gives them in different places.

How the values were obtained:
UACC-62 = details: UACC-62, Melanoma; five-dose 0.01–100 µM
TK-10 = assay: cells; details: Homo sapiens
SF-268 [1] = details: SF-268, CNS cancer; five-dose 0.01–100 µM
SK-OV-3 = details: SK-OV-3, Ovarian cancer; five-dose 0.01–100 µM
SF-268 [2] = assay: cells; details: Homo sapiens
CNS cancer subpanel = assay: NCI five-dose screen, subpanel MG-MID; assay type: cell-based, human
Procedure: (§1) (Figures S53–S56 in Supporting Information). This assay evaluates GI50, TGI, and LC50 parameters, as cited in Table 1. Their values correspondingly represent the GI level, cytostatic impact, and cytotoxicity parameter. Furthermore, based on the GI50 values, the mean graph midpoints (MG-MID) for both full NCI 59 cell panel and subpanel cancer cell lines were evaluated, affording a median potency parameter for the examined compound 6i, as depicted in Table 2.
(§2) Moreover, the selectivity index (SI) of the most efficient analogue 6i was calculated from the division of full-panel MG-MID by subpanel MG-MID. A value greater than 6 implies high selectivity, whereas a ratio from 3 to 6 denotes moderate selectivity. Otherwise, the compound is referred to as non-selective.[24] […] Therefore, the outstanding anti-cancer profile of compound 6i against the herein examined NCI-59 cell panels inspired us to explore its mechanism of action further.
(§3) The designed analogues were submitted to NCI-Chemotherapeutic Agents Repository (MD, USA) for screening on a panel of 59 cancer cell lines. All compounds were initially examined at 10 µM concentration (Single-Dose Screen), and then the most efficient analogue 6i was screened further at 0.01–100 µM (Five-Dose Screen). The screening procedures were performed according to NCI-Drug Evaluation Branch protocol using SRB protein assay, as described previously[21]^,[66]. The experimental procedures were detailed in the Supporting Information.

Prostate cancer subpanel = assay: NCI five-dose screen, subpanel MG-MID; assay type: cell-based, human
Procedure: as §1, §2, §3

Renal cancer subpanel = assay: NCI five-dose screen, subpanel MG-MID; assay type: cell-based, human
Procedure: as §1, §2, §3

Leukaemia subpanel = assay: NCI five-dose screen, subpanel MG-MID; assay type: cell-based, human
Procedure: as §1, §2, §3

Breast cancer subpanel = assay: NCI five-dose screen, subpanel MG-MID; assay type: cell-based, human
Procedure: as §1, §2, §3

[3] = test system: Non-small cell lung cancer subpanel; assay: NCI five-dose screen, subpanel MG-MID; assay type: cell-based, human
Procedure: as §1, §2, §3

Melanoma subpanel = assay: NCI five-dose screen, subpanel MG-MID; assay type: cell-based, human
Procedure: as §1, §2, §3

Ovarian cancer subpanel = assay: NCI five-dose screen, subpanel MG-MID; assay type: cell-based, human
Procedure: as §1, §2, §3

HL-60(TB) = details: Leukaemia, five-dose 0.01–100 µM
HOP-62 = assay: cells; details: Homo sapiens
HCT-15 = details: HCT-15, Colon cancer; five-dose 0.01–100 µM
MALME-3M = assay: cells; details: Homo sapiens
MCF7 = details: MCF7, Breast cancer; five-dose 0.01–100 µM
MCF-7 cells = assay: Cell cycle analysis (PI, flow cytometry); assay type: cell-based, human; details: MCF-7, 10 µM, 48 h; DMSO control 24.95%
Procedure: Figure 5. Flow cytometric analyses: cell cycle distribution analysis using PI staining method in which MCF-7 cells were treated by 6i (10 µM) and DMSO (negative control; NC) for 48 h; (A) 6i, (B) DMSO, (C) cells percentage in different phases (G0-G1, S, G2/M); apoptotic induction using annexin-V-FITC/PI staining method in which cancer cells were treated by 6i (10 µM) and DMSO (negative control; NC) for 24 h; (D) 6i, (E) DMSO, (F) histogram for induction of apoptosis.
The cell cycle assay was carried out according to the previously reported[36]^,[37]. Briefly, in a six-well plate, 2 ml of MCF-7 cells were seeded per well and incubated overnight at 37 °C and CO2 (5%). After 12 h incubation with serum-free medium, they were treated with 10 μM of 6i, incubated for 48 h, then washed twice with 1× PBS, trypsinised and centrifuged for 5 min (500 xg) at 4 °C. And then the cell pellet, in ice-cold 1× PBS, was fixed with absolute ethanol at −20 °C for 2 h, washed with 1× PBS ice-cold solution and finally stained with propidium iodide (PI)/RNase (Abcam, ab139418) for 0.5 h at 25 °C in the dark. flow cytometry determined the DNA content in cell phases using BD FACS Calibur[36]^,[37].

full NCI 59 cell panel = assay: cells; details: Homo sapiens
KM12 = details: KM12, Colon cancer; five-dose 0.01–100 µM
T-47D = assay: cells; details: Homo sapiens, T47D
MDA-MB-468 = assay: cells; details: Homo sapiens

SMILES: CCOC(=O)CC[C@H](NC(=O)c1ccc(NC(=O)Cn2cnc3c(c(C)nn3-c3ccc(Br)cc3)c2=O)cc1)C(=O)OCC [Compound 6i]
- TGI (UACC-62): 32.1 µM
- GI50 (TK-10; TK-10): 31.3 µM
- CC50 (TK-10; TK-10, read-out: LC50): > 100 µM
- TGI (SF-268 [1]): 32.8 µM
- TGI (SK-OV-3): 67.3 µM
- GI50 (SF-268 [2]; SF-268): 7.01 µM
- CC50 (SF-268 [2]; SF-268, read-out: LC50): > 100 µM
- MG-MID (CNS cancer subpanel; CNS cancer subpanel, based on GI50): 12.70 µM
- Selectivity index (CNS cancer subpanel; CNS cancer, full-panel MG-MID / subpanel MG-MID): 1.61
- MG-MID (Prostate cancer subpanel; Prostate cancer subpanel, based on GI50): 6.63 µM
- Selectivity index (Prostate cancer subpanel; Prostate cancer, full-panel MG-MID / subpanel MG-MID): 3.08
- MG-MID (Renal cancer subpanel; Renal cancer subpanel, based on GI50): 19.19 µM
- Selectivity index (Renal cancer subpanel; Renal cancer, full-panel MG-MID / subpanel MG-MID): 1.06
- MG-MID (Leukaemia subpanel; Leukaemia subpanel, based on GI50): 68.03 µM
- Selectivity index (Leukaemia subpanel; Leukaemia, full-panel MG-MID / subpanel MG-MID): 0.30
- MG-MID (Breast cancer subpanel; Breast cancer subpanel, based on GI50): 15.29 µM
- Selectivity index (Breast cancer subpanel; Breast cancer, full-panel MG-MID / subpanel MG-MID): 1.33
- MG-MID ([3]; Non-small cell lung cancer subpanel, based on GI50): 10.62 µM
- Selectivity index ([3]; Non-small cell lung cancer, full-panel MG-MID / subpanel MG-MID): 1.92
- MG-MID (Melanoma subpanel; Melanoma subpanel, based on GI50): 16.8 µM
- Selectivity index (Melanoma subpanel; Melanoma, full-panel MG-MID / subpanel MG-MID): 1.21
- MG-MID (Ovarian cancer subpanel; Ovarian cancer subpanel, based on GI50): 16.52 µM
- Selectivity index (Ovarian cancer subpanel; Ovarian cancer, full-panel MG-MID / subpanel MG-MID): 1.23
- TGI (HL-60(TB)): >100 µM
- GI50 (HOP-62; HOP-62): 5.11 µM
- CC50 (HOP-62; HOP-62, read-out: LC50): 57.5 µM
- TGI (HCT-15): >100 µM
- GI50 (MALME-3M): 15 µM
- CC50 (MALME-3M; read-out: LC50): 59.4 µM
- TGI (MCF7): 16.5 µM
- percentage of S-phase cells (MCF-7 cells): 36.29%
- GI50 (full NCI 59 cell panel; range over HOP-62, A549/ATCC, HOP-92, NCI-H23, NCI-H226, SF-268, HCT-116, OVCAR-8, LOX IMVI, DU-145, PC-3, 786-0, BT-549, MCF7): 3.93 to 9.85 µM
- GI50 (full NCI 59 cell panel; range over the residual examined cell lines): 10.1 to 71 µM
- CC50 (full NCI 59 cell panel; read-out: LC50, most of the examined cancer cells): > 100 µM
- CC50 (full NCI 59 cell panel; read-out: LC50, range over the 23 cell lines listed in b28 as exceptions): 47 to 96.1 µM
- TGI (KM12): >100 µM
- GI50 (T-47D): 45.6 µM
- CC50 (T-47D; read-out: LC50): > 100 µM
- GI50 (MDA-MB-468; MDA-MB-468): 13.5 µM
- CC50 (MDA-MB-468; MDA-MB-468, read-out: LC50): > 100 µM
